Assay results: publication PMC10208580 (Science Advances, 2023)
Read-outs that look alike come from different tables or passages of the source. Bridge positions count the residues as written; N and C are the ends. Square brackets hold non-standard residues; d marks the D form. Ends that are not written are not given here. Peptide text beside a SMILES is read from it. pT = C[C@@H](OP(=O)(O)O)[C@H](N)C(=O)O

Assays:
RyR1 [1] = biological target: T1, RyR1 (Oryctolagus cuniculus, UniProt P11716); experiment: [3H]ryanodine binding to skeletal muscle heavy SR vesicles; type: biochemical, rabbit; details: for EC50: SEM
T1 construct: from tissue; host or cells: rabbit skeletal muscle heavy SR vesicles
T1 sequence (P11716 whole entry): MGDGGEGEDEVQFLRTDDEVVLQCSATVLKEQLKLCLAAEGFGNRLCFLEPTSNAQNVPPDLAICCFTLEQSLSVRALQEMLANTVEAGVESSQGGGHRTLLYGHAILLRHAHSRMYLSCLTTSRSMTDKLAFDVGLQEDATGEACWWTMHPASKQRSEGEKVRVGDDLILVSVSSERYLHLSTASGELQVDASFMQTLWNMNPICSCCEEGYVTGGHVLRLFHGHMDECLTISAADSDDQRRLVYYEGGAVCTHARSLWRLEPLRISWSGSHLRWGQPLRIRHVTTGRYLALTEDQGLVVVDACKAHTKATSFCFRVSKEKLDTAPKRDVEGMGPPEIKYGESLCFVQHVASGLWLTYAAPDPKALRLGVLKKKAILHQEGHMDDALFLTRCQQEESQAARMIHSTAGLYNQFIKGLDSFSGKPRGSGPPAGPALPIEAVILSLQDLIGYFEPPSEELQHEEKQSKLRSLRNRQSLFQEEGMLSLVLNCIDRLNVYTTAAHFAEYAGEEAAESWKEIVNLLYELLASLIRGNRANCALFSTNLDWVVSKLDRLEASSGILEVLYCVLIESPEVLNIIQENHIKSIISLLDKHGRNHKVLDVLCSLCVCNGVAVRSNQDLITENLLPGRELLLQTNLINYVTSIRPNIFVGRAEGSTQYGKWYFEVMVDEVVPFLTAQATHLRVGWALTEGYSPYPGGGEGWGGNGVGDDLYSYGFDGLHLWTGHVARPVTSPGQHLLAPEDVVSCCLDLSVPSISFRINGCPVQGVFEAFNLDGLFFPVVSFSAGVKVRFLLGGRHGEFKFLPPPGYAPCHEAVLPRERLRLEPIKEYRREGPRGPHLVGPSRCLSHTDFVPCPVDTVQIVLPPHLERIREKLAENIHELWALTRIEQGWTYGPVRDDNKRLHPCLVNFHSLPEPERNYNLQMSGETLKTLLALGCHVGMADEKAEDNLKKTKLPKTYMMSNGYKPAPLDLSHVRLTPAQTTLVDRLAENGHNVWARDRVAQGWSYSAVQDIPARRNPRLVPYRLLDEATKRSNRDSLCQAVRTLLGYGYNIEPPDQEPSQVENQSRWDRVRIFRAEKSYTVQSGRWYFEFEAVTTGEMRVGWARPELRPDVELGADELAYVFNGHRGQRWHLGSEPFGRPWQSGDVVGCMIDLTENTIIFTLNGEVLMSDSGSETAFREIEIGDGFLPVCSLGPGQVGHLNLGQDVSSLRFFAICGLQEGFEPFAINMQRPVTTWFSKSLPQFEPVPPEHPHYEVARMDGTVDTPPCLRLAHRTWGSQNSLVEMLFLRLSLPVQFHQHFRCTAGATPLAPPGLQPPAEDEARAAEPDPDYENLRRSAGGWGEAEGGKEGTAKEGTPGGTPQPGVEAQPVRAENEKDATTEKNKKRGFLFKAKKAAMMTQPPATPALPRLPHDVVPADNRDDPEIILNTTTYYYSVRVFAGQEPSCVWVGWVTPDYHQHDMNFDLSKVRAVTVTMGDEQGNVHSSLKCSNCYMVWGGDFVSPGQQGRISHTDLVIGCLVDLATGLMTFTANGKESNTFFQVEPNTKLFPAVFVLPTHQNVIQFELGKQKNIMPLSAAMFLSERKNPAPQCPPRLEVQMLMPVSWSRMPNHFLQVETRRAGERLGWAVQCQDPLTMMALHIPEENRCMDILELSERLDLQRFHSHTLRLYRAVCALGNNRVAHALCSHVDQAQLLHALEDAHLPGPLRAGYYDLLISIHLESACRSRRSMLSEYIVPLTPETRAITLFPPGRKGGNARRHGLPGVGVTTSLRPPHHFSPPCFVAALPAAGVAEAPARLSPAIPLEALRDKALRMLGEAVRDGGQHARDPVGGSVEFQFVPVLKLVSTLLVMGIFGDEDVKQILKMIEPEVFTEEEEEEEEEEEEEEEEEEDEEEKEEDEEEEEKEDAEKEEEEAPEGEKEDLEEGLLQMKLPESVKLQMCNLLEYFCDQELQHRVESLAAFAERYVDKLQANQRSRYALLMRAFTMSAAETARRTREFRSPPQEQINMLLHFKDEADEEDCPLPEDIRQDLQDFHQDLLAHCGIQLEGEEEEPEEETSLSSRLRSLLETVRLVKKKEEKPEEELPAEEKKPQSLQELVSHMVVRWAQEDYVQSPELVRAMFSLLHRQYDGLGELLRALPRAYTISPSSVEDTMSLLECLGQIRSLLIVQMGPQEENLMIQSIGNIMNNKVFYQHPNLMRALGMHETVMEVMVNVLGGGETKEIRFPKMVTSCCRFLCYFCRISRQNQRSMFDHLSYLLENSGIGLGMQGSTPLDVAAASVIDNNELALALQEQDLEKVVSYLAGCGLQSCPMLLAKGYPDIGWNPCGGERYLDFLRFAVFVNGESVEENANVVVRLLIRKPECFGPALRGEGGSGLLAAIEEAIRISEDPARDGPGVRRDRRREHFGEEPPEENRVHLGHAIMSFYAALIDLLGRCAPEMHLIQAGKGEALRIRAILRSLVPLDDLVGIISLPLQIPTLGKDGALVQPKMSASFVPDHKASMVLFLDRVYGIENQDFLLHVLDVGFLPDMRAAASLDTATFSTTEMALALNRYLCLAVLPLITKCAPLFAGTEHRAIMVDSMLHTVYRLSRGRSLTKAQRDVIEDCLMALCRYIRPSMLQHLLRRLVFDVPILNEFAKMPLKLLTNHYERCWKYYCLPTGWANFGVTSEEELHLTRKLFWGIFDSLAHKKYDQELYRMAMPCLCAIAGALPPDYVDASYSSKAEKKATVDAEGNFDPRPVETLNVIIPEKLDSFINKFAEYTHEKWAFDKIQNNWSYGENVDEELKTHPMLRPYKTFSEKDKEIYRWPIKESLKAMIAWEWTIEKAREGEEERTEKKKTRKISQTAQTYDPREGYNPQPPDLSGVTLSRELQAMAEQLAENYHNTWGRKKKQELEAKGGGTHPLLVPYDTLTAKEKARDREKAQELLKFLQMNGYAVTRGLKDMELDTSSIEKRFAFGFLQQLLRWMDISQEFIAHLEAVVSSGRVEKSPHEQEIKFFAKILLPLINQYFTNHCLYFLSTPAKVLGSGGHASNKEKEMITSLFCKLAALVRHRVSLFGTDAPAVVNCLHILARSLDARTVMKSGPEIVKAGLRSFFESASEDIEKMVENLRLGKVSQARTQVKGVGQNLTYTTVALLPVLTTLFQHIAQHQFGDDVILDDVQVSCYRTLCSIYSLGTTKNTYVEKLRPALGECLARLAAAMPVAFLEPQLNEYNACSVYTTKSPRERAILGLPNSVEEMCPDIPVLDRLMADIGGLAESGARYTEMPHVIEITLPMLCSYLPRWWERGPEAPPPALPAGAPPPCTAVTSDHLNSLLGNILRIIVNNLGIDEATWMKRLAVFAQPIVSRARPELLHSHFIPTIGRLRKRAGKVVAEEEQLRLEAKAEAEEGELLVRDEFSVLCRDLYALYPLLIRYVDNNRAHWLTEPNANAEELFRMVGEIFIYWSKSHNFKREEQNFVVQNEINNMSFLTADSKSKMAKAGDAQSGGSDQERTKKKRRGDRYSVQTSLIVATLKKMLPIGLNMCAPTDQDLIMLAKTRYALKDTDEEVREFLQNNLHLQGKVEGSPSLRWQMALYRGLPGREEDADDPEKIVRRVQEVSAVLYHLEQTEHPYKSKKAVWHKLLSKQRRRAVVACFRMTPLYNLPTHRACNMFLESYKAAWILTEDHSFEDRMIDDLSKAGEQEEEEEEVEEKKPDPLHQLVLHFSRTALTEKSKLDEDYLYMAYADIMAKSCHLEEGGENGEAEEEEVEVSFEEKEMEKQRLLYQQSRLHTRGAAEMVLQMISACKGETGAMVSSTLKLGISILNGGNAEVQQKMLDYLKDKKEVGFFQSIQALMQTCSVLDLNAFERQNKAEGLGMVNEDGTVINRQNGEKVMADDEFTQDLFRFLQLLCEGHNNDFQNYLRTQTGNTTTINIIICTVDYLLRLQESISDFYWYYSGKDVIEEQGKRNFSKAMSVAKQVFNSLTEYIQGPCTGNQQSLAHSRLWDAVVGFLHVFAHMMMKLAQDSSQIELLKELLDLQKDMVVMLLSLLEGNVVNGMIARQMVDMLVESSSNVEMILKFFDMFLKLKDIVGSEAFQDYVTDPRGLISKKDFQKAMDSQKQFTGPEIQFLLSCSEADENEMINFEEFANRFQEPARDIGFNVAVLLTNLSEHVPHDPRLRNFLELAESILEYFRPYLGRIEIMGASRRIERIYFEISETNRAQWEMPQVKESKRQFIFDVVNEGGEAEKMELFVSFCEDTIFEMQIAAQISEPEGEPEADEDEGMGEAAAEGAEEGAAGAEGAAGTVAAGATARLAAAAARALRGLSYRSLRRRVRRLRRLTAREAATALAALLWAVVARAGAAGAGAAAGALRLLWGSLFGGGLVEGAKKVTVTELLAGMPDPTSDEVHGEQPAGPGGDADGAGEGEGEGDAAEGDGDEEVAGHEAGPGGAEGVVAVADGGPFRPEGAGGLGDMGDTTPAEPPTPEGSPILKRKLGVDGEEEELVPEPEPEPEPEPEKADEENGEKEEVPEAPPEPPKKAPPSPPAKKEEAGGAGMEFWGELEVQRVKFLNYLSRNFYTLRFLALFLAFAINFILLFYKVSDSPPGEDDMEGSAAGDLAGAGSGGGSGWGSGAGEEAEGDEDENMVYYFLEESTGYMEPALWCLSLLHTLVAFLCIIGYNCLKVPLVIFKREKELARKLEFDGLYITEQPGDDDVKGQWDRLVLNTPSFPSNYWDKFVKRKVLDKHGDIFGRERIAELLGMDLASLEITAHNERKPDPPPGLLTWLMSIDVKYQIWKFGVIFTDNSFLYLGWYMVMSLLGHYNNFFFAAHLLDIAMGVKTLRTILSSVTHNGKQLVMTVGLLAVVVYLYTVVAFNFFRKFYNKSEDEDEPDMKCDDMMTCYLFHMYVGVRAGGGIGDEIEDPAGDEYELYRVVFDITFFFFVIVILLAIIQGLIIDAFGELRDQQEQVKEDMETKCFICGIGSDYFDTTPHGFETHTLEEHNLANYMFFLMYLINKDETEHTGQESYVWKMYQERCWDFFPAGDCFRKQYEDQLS

[2] = biological target: rabbit RyR1 (Ryanodine Receptor 1), purified from skeletal muscle (rabbit) (UniProt P11716)
rabbit RyR1 (Ryanodine Receptor 1), purified from skeletal muscle (rabbit), sequence (P11716 whole entry): as above

RyR1 [3] = details: cited from earlier work
From the text: The detailed binding interface between IpCa and RyR1 is shown in Fig. 3, and putative interacting pairs of residues are shown in table S1. IpCa enters the vestibule of the channel and binds deep at the cytosolic side, adjacent to the transmembrane region. All RyR1 residues involved in binding are located in the cytosolic extensions of the inner S6 helices (S6ext) that line the permeation pathway. Equivalent residues of all four RyR1 subunits make different interactions with IpCa. The most extensive interface includes the side of IpCa that contains the 22–30 loop. It mostly consists of various ... || The structure is also in agreement with previous mutagenesis studies of calcins. For example, Arg^23 is conserved in all calcins and forms a likely salt bridge with RyR1 residue Asp^4945. […] Another study found a general importance of multiple charged IpCa residues to form a subconductance state in RyR1, with the largest effects found for substitutions in the 22–30 loop ([20]), which forms the most extensive interactions with RyR1. Thus, the structure appears to be in general agreement with known potencies of natura ... || A third tunnel with a smaller radius (~1.8 Å) can be found at the lateral opening near Arg^24 (“exit 3,” fig. S10D). The narrower radius, along with the presence of three positively charged residues at the constriction point, likely provides a sizeable energetic barrier. Thus, on the basis of minimum radius and electrostatic surface potential, exit 1 may form the most likely exit pathway for Ca^2+ ions.

rabbit RyR1 = experiment: Cryo-EM of RyR1 incubated with calcin variant (density for peptide); type: binding; details: activating conditions (Ca2+, ATP, caffeine, CaM1234), incubation up to an hour
Description: For activating conditions (datasets 3 to 5), RyR1 samples were diluted to contain 30 μM buffered free Ca^2+, 80 μM CaM1234, 5 mM caffeine, and 8 mM (dataset 3) or 5 mM (datasets 4 and 5) ATP. Purified IpCa (powder) was first diluted to 1 mM in buffer S5 without EGTA or Ca^2+ and then added to the RyR1 samples to a final concentration of 30 to 80 μM. Samples were incubated in the presence of IpCa (including pT26 and T26E) up to an hour before plunging. RyR1 particles from each condition were assessed by negative-stain EM. Four microliters of purified RyR1 diluted to 0.01 to 0.05 mg/ml was applied to glow-discharged 400-mesh copper grids (Electron Microscopy Sciences) and stained with 0.7% (w/v %) uranyl formate. Negatively stained EM grids were imaged on a Tecnai G2 Spirit microscope (Thermo Fisher Scientific) operated at 120 kV or a Talos with a Ceta camera operated at 120 kV.
For cryo-EM, RyR1 samples with a final concentration of 10 to 12 mg/ml were used. The samples were applied to holey carbon R2/2 grids (Quantifoil). Grids were blotted for 3 s with −5 to −15 blot force applied and subsequently flash-frozen with liquid ethane using a Vitrobot IV (Thermo Fisher Scientific). Grids were transferred to a Titan Krios G2 electron microscope (Thermo Fisher Scientific) operating at 300 kV. […]

[4] = biological target: T2, mouse cAMP PKA catalytic subunit (PKAc, α isoform) (Mus musculus, UniProt P05132); experiment: ADP-Glo kinase assay, Michaelis-Menten kinetics of peptide phosphorylation; type: biochemical; details: peptide as PKA substrate, 25 nM PKAc, 1 mM ATP, 6 repeats
T2 construct: His tag (inferred from HisTrap purification) (cleaved yes); made in house; host or cells: E. coli Rosetta (DE3) pLysI
Description: (§1) PKAc was concentrated to 500 μM, aliquoted, and stored in kinase buffer containing 20 mM Hepes (pH 7.4), 150 mM KCl, 4 mM TCEP, 5 mM MgCl2, and 30% glycerol and stored at −70°C in 0.5-ml tubes prior for use in kinase assays. All ADP-Glo Max reagents (Promega) were thawed and brought to room temperature before use. Each 0.5-ml PKAc tube was thawed and diluted to 0.5 μM in the kinase buffer without the glycerol. Kemptide and IpCa substrates were diluted to 1 mM in kinase buffer (without glycerol) from 10 mM stock made from lyophilized powder. Using a twofold dilution series, substrate concentrations ranged from 512 to 0.5 μM. In addition, a reaction with no substrate was added for a total of 12 reactions using a 20-μl reaction volume. One microliter of ATP (from the ADP-Glo Max kit) was used to reach a final concentration of 1 mM ATP in the reaction volume. Reaction was started by adding 1 μl of PKAc to reach 25 nM for each reaction. All reactions were carried out at room temperature for 30 to 60 min. Duplicates of each reaction tube were plated on a Corning 384-well solid white polystyrene microplates (Thermo Fisher Scientific) and used for downstream detection and luminescence readings. The average values of each duplicate reaction were used as a single replicate. Thus, for the total of six replicates, 12 reactions were used. Readings are based on relative luminescence units, which are converted into moles of ATP hydrolyzed using an adenosine diphosphate–ATP standard curve according to manufacturer’s protocol (Promega). Each standard curve was run in duplicate where the average was used to calculate moles of ATP hydrolyzed in each kinase reaction. Luminescence readings were recorded from the microplate wells using a PerkinElmer Victor X4.
(§2) A nonlinear regression Michaelis-Menten kinetics fitting function was used in GraphPad Prism 8.0 to calculate KM,Vmax, and Kcat values for the PKA-IpCa kinase assays. SEMs are reported for each data point as calculated in Prism. Figures and graphs were generated using PyMOL, ChimeraX, and Prism 8.0 unless otherwise noted. [^3H] Ryanodine binding data were fitted using nonlinear regression analysis in Origin 2018b software (Origin Lab). Hill’s equation was used to determine Bmax (maximum specific binding) and Kd ([…]). Statistical significance was determined at P < 0.05.

[5] = system: CC(C)C[C@@H]1NC(=O)[C@H](Cc2c[nH]cn2)NC(=O)[C@@H]2CCCN2C(=O)[C@H](CC(C)C)NC(=O)[C@@H](NC(=O)[C@H](CC(=O)O)NC(=O)CN)CSSC[C@@H]2NC(=O)[C@@H]3CSSC[C@@H](C(=O)N[C@@H](CCCNC(=N)N)C(=O)O)NC(=O)[C@H](CCCNC(=N)N)NC(=O)[C@H](CCCCN)NC(=O)[C@H](CCC(=O)O)NC(=O)[C@H](C)NC(=O)[C@H](CC(N)=O)NC(=O)[C@H]([C@@H](C)O)NC(=O)CNC(=O)[C@H](CCCNC(=N)N)NC(=O)[C@H](CCCNC(=N)N)NC(=O)[C@H](CCCCN)NC(=O)[C@H](CSSC[C@H](NC(=O)[C@H](CCCNC(=N)N)NC(=O)[C@H](CCCCN)NC1=O)C(=O)N[C@@H](CCCCN)C(=O)N[C@@H](C)C(=O)N[C@@H](CC(=O)O)C(=O)N[C@@H](CC(N)=O)C(=O)N[C@@H](CC(=O)O)C(=O)N3)NC(=O)[C@H](CCCCN)NC(=O)[C@H](CCCCN)NC(=O)CNC2=O; experiment: as above; type: biochemical, mouse; details: other: peptide as PKA substrate; 25 nM PKAc, 1 mM ATP, substrate 0.5-512 µM, room temperature 30-60 min, luminescence; 6 repeats; pH 7.4
Description: as §1, §2

## CC(C)C[C@@H]1NC(=O)[C@H](Cc2c[nH]cn2)NC(=O)[C@@H]2CCCN2C(=O)[C@H](CC(C)C)NC(=O)[C@@H](NC(=O)[C@H](CC(=O)O)NC(=O)CN)CSSC[C@@H]2NC(=O)[C@@H]3CSSC[C@@H](C(=O)N[C@@H](CCCNC(=N)N)C(=O)O)NC(=O)[C@H](CCCNC(=N)N)NC(=O)[C@H](CCCCN)NC(=O)[C@H](CCC(=O)O)NC(=O)[C@H](C)NC(=O)[C@H](CC(N)=O)NC(=O)[C@H]([C@@H](C)O)NC(=O)CNC(=O)[C@H](CCCNC(=N)N)NC(=O)[C@H](CCCNC(=N)N)NC(=O)[C@H](CCCCN)NC(=O)[C@H](CSSC[C@H](NC(=O)[C@H](CCCNC(=N)N)NC(=O)[C@H](CCCCN)NC1=O)C(=O)N[C@@H](CCCCN)C(=O)N[C@@H](C)C(=O)N[C@@H](CC(=O)O)C(=O)N[C@@H](CC(N)=O)C(=O)N[C@@H](CC(=O)O)C(=O)N3)NC(=O)[C@H](CCCCN)NC(=O)[C@H](CCCCN)NC(=O)CNC2=O [IpCa, Imperacalcin] (H-GDCLPHLKRCKADNDCCGKKCKRRGTNAEKRCR-OH; disulfide 3-17, 10-21, 16-32)
RyR1 [1]
  EC50: 0.006 ± 0.002 µM

## CC(C)C[C@@H]1NC(=O)[C@H](Cc2c[nH]cn2)NC(=O)[C@@H]2CCCN2C(=O)[C@H](CC(C)C)NC(=O)[C@@H](NC(=O)[C@H](CC(=O)O)NC(=O)CN)CSSC[C@@H]2NC(=O)[C@@H]3CSSC[C@@H](C(=O)N[C@@H](CCCNC(=N)N)C(=O)O)NC(=O)[C@H](CCCNC(=N)N)NC(=O)[C@H](CCCCN)NC(=O)[C@H](CCC(=O)O)NC(=O)[C@H](C)NC(=O)[C@H](CC(N)=O)NC(=O)[C@H]([C@@H](C)OP(=O)(O)O)NC(=O)CNC(=O)[C@H](CCCNC(=N)N)NC(=O)[C@H](CCCNC(=N)N)NC(=O)[C@H](CCCCN)NC(=O)[C@H](CSSC[C@H](NC(=O)[C@H](CCCNC(=N)N)NC(=O)[C@H](CCCCN)NC1=O)C(=O)N[C@@H](CCCCN)C(=O)N[C@@H](C)C(=O)N[C@@H](CC(=O)O)C(=O)N[C@@H](CC(N)=O)C(=O)N[C@@H](CC(=O)O)C(=O)N3)NC(=O)[C@H](CCCCN)NC(=O)[C@H](CCCCN)NC(=O)CNC2=O [IpCa-pT26] (H-GDCLPHLKRCKADNDCCGKKCKRRG[pT]NAEKRCR-OH; disulfide 3-17, 10-21, 16-32)
RyR1 [1]; skeletal muscle heavy SR vesicles, mean ± SEM for n = 3 separate experiments, read-out: Median effective concentration for stimulation of [3H]ryanodine binding
  EC50: 0.042 ± 0.01 µM

## Imperacalcin (from UniProt P59868 1-33) (peptide)
[2]
  [3H] ryanodine binding to skeletal muscle heavy SR vesicles against IpCa-WT concentration; median effective concentration: 6 nM

## IpCa R23E: IpCa with the R23E mutation, from previous mutagenesis study (GDCLPHLKRCKADNDCCGKKCKERGTNAEKRCR; ends and bridges not checked; cysteine pairing not given here; UniProt P59868 1-33, looked up, variant R23E)
RyR1 [3]
  Effect of mutation on potency: drastically reduce potency

## IpCa-T26E: IpCa variant containing a phosphomimetic (T26E) (GDCLPHLKRCKADNDCCGKKCKRRGENAEKRCR; disulfide (positions not given here); not fully specified; ends not checked; UniProt P59868 1-33, looked up, variant T26E)
Rabbit RyR1
  Cryo-EM density for the peptide bound to RyR1: failed to show any density for IpCa
RyR1 [1]; skeletal muscle heavy SR vesicles, no phosphatase inhibitors
  Effect on [3H]ryanodine binding: completely inert

## LRRASLG [Kemptide]
[4]; room temperature
  Vmax: 8.34 ± 0.40 µmol/min/mg
  kcat: 4.62 ± 0.22 s⁻¹
[4]; substrate 0.5-512 µM, room temperature 30-60 min, luminescence
  Km: 10.3 ± 2.16 µM

## mouse cAMP PKA catalytic subunit (PKAc, α isoform) (Mus musculus)
[5]
  Km: 22.0 ± 3.40 µM
  Vmax: 20.2 ± 0.93 µmol/min/mg
  kcat: 11.2 ± 0.518 s⁻¹
  kcat/Km: 508000 M⁻¹ s⁻¹

## opicalcin2: calcin differing from opicalcin1 only by Ala26 instead of Thr26 (GDCLPHLKRCKENNDCCSKKCKRRGANPEKRCR; ends and bridges not checked; cysteine pairing not given here; UniProt P60253 34-66, looked up)
RyR1 [3]
  Apparent affinity / potency: can still bind with high potency
RyR1 [3]; opicalcin2 less potent, fig. S5, ref Xiao et al (2016)
  Difference in potency between opicalcin1 and opicalcin2: ~ 10 fold
